Test [1] addresses DAT (Rattus norvegicus, UniProt P23977). As to the kind of experiment: DA release assay (synaptosomes, [3H]MPP+). It is filed as biochemical. Further details: the supernatants were retained on ice (synaptosomal preparation); from tissue; host or cells: rat caudate synaptosomes. The following applies: for activation at 10 µM: Table 3. How it is done: (§1) Rat caudate (for DA release) or whole brain minus cerebellum and caudate (for NE and 5-HT release), was homogenized in ice-cold 10% sucrose containing 1 μM reserpine. Nomifensine (100 nM) and GBR12935 (100 nM) were added to the sucrose solution for [^3H]5-HT release experiments to block any potential [^3H]5-HT reuptake into NE and DA nerve terminals. For the DA release assay, 100 nM desipramine and 100 nM citalopram were added to block [^3H]MPP^+ uptake into NE and 5-HT nerves. For the NE release assay, 50 nM GBR12935 and 100 nM citalopram were added to block [^3H]MPP^+ uptake into DA and 5-HT nerves. After 12 strokes with a Potter-Elvehjem homogenizer, homogenates were centrifuged at 1000×g for 10 min at 0-4° C. and the supernatants were retained on ice (synaptosomal preparation).
(§2) After incubation to steady state, 850 μl of synaptosomes preloaded with [^3H]ligand were added to 12×75 mm polystyrene test tubes that contained 150 μl test drug in uptake buffer plus 1 mg/ml BSA. After 5 min (^3H]5-HT) or 30 min (NE and DA assays) the release reaction was terminated by dilution with 4 ml wash buffer (10 mM Tris-HCl pH 7.4 containing 0.9% NaCl at 25° C.) followed by rapid vacuum filtration over Whatman GF/B filters using a Brandel Harvester. The filters were rinsed twice with 4 ml wash buffer using the Brandel Harvester, and the retained tritium was counted by a Taurus liquid scintillation counter at 40% efficiency after an overnight extraction in 3 ml Cytoscint (ICN).
(§3) In substrate reversal experiments, statistical significance was determined using the Student's t-test.

For test [2], the target named is T1, NET (Rattus norvegicus, UniProt Q63380).
T1 construct: the supernatants were retained on ice (synaptosomal preparation); from tissue; host or cells: rat whole brain minus cerebellum and caudate, synaptosomes
Description: NE release assay (synaptosomes, [3H]MPP+). Format: biochemical. Conditions: for NE Rel (%): % EC50 of release. How it is done:
as §1, §2, §3

The target of test [3] is SERT (Rattus norvegicus, UniProt P31652). As to the kind of experiment: 5-HT release assay (synaptosomes, [3H]5-HT). Format: biochemical. Set-up: the supernatants were retained on ice (synaptosomal preparation); from tissue; host or cells: rat whole brain minus cerebellum and caudate, synaptosomes. Conditions: for activation at 10 µM / Release 5-HT (EC50 nm): Table 3; for Release 5-HT (EC50 nm): rat brain synaptosomes; for 5HT Rel (%): Table 4, % EC50 of release. How it is done: as §1, §2, §3

The target of test [4] is T2, 5-HT2B receptor (Homo sapiens, UniProt P41595). As to the kind of experiment: 5-HT2B activity, agonist. Format: cell-based.
In test [5] the target is T2, 5-HT2B receptor. As to the kind of experiment: 5-HT2B activity, antagonist. It is filed as cell-based.
The mark [6] stands for this setting: Release NE (EC50 nm), Table 3, rat brain synaptosomes.

Structures are written as SMILES. Where a name gives a salt, the structure may show the parent alone. Read-outs that look alike come from different tables or passages of the source.

Sequence of SERT (P31652 whole entry): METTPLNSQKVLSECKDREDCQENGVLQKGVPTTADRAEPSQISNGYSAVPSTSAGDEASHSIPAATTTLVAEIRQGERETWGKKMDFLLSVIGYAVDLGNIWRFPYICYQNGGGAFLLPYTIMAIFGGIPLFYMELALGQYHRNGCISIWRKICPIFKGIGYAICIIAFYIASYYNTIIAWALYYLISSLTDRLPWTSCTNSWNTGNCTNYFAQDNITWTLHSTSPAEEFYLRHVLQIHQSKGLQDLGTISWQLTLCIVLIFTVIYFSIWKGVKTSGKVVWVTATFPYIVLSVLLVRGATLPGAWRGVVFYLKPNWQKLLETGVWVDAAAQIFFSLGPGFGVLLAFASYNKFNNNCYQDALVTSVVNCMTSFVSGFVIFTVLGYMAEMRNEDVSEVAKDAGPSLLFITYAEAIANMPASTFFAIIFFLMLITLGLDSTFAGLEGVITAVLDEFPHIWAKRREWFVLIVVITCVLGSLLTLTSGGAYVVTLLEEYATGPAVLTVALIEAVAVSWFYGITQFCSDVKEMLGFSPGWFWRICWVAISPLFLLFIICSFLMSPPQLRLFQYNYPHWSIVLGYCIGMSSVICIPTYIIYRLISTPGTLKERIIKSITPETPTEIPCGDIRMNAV
T2 sequence (P41595 whole entry): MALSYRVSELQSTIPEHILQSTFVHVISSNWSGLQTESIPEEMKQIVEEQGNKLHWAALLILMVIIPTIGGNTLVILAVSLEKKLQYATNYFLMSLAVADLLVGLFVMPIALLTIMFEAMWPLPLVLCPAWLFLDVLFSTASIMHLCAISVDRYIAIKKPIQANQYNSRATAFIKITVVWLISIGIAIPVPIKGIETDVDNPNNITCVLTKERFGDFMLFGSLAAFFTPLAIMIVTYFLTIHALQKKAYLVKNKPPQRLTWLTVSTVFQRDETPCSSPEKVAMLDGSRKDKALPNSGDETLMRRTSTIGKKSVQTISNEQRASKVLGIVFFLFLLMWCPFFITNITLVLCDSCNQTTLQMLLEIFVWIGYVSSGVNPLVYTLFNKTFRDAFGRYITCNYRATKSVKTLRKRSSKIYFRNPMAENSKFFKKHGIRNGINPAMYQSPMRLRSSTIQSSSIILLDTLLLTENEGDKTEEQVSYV
T1 sequence (Q63380 1-617): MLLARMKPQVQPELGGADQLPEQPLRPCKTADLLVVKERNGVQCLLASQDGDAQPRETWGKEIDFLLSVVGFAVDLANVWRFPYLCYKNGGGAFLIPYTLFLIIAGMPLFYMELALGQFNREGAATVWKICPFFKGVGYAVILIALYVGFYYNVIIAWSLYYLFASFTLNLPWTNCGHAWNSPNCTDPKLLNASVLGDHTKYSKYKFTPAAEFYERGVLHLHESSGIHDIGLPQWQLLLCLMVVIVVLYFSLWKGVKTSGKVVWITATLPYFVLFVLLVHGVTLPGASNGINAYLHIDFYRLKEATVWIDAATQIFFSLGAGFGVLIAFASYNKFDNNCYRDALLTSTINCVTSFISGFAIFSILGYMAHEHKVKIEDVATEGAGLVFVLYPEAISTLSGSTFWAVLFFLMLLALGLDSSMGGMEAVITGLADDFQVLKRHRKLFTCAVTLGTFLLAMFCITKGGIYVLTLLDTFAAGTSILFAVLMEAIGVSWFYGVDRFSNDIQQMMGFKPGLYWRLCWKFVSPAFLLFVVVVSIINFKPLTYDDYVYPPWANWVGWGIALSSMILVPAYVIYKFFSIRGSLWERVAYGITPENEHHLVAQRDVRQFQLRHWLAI
Sequence of DAT (P23977 whole entry): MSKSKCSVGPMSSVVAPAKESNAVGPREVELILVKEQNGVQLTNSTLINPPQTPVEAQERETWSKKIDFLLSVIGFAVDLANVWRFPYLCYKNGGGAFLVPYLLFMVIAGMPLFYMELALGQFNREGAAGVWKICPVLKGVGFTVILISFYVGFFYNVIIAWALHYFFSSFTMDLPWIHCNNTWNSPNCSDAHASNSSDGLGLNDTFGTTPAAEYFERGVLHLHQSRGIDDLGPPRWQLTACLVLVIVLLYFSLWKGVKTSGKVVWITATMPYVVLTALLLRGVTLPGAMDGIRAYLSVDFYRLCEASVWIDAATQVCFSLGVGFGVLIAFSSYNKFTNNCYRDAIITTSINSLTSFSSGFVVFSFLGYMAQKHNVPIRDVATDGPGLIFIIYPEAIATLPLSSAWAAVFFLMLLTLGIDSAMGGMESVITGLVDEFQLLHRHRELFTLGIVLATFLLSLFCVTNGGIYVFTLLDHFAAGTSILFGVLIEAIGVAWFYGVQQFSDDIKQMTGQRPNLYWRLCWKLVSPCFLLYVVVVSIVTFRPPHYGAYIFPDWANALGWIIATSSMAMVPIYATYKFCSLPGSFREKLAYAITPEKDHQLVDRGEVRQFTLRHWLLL

As to `CC1NCCOC1c1ccccc1` (single isomer, unassigned; (-)) [(−)-isomer, reference compound], the “DA releaser activity (in words)” value in test [1] is on record as “active as a releaser, but is not as potent”.
For the compound `C[C@H]1NCCOC1c1cccc(F)c1` (stereo in doubt) [PAL593, 2-(3-fluoro-phenyl)-3-methyl-morpholine], the EC50 in test [2] (NE Rel (EC50), Table 4) is 30 nM; in test [1], 43 nM; in test [3] it was 2560 nM.
As to `C[C@H]1NCCOC1c1cccc(Cl)c1` (stereo in doubt) [PAL594, 2-(3-chloro-phenyl)-3-methyl-morpholine], the EC50 in test [2] (NE Rel (EC50), Table 4) came to 75 nM; in test [1], 27 nM; in test [3], 301 nM. The activation at 10 µM in test [2] (Table 3) is 82%; in test [4], 2%; in test [1], 100%; in test [3], 95%. This compound also gave an inhibition at 1 µM in test [5] of 28%. In addition, the “5HT releaser activity (in words)” value in test [3] is listed as “improvements in 5HT release”.
In the case of `C[C@H]1NCCOC1c1ccccc1` (stereo partly shown) [PAL55, reference compound], the EC50 in test [2] (setting [6]) was determined as 50 nM; in test [1], 131 nM; in test [3], 7770 nM. The compound also had an activation at 10 µM in test [4] of 0%.
On to `C[C@H]1NCCO[C@@H]1c1ccccc1` [PAL56, (+)-phenmetrazine, reference compound], for which the EC50 in test [2] (NE Rel (EC50), Table 4) is 38 nM; in test [2] (setting [6]), 37 nM; in test [1] it was 87 nM; in test [3] it was 3250 nM. The compound also showed an activation at 10 µM in test [4] of 0%. Moreover, in test [5], at 1 µM the inhibition was 42%. In test [1], the “DA releaser activity (in words)” value is “effective DA/5HT releaser”. In addition, the “5HT releaser activity (in words)” value in test [3] is on record as “effective DA/5HT releaser”.
Consider `C[C@@H]1NCCO[C@H]1c1ccccc1` [PAL57, reference compound], for which the EC50 was 63 nM in test [2] (setting [6]) and 415 nM in test [1]. The activation at 10 µM in test [4] was determined as 0%. Also, the “Release 5-HT (EC50 nm)” value in test [3] is “inactive”.
In the same order, the values of `C[C@H]1NCCO[C@H]1c1ccccc1` [PAL60, reference compound] are 349 nM, 1460 nM, 0% and “Inactive”.
`CC1NCCOC1(O)c1ccccc1` (stereo not shown) [PAL583, 3-methyl-2-phenylmorpholin-2-ol]: the activation at 10 µM in test [2] (Table 3) was 69%; in test [4], 0%; in test [1], 29%; in test [3], 0%. The same compound had an inhibition at 1 µM in test [5] of 6%.
Turning to `Fc1ccc(C2CNCCO2)cc1` (stereo not shown) [PAL635, 2-(4-fluorophenyl)morpholine], the EC50 in test [2] (NE Rel (EC50), Table 4) was 285 nM; in test [1], 529 nM; in test [3], 2400 nM. In addition, the activation at 10 µM in test [2] (Table 3) amounted to 100%; in test [4] it was 0%; in test [1], 95%; in test [3], 88%.
For `C[C@H]1CO[C@@H](c2ccccc2)CN1` [PAL 730, (2S,5S)-5-Methyl-2-phenyl-morpholine], the values for the EC50 in test [2], in test [1] and in test [3] were 79 nM, 212 nM and 107 nM, respectively.
For `C[C@H]1CO[C@@H](c2cccc(Cl)c2)CN1` [PAL 738, (2S,5S)-2-(3-Chloro-phenyl)-5-methyl-morpholine], in that order: 65 nM, 58 nM and 23 nM.
With `Cc1ccc(C2OCCNC2C)cc1` (stereo not shown) [PAL 747, 3-Methyl-2-(4′-Tolyl)morpholine fumarate], the “DA Rel (%)” value in test [1] (Table 4, % EC50 of release) is reported as 91%.
In the case of `CC1NCCOC1c1ccc(F)cc1.CC1NCCOC1c1ccc(F)cc1.O=C(O)/C=C/C(=O)O` (stereo not shown) [PAL 748, 3-Methyl-[(4′-Fluoro)-2-Phenyl]morpholine (0.5 fumarate)], the “NE Rel (%)” value in test [2] (Table 4) is given as 93%. In addition, in test [1] (Table 4, % EC50 of release), the “DA Rel (%)” value is on record as 98%. Besides, the “5HT Rel (%)” value in test [3] worked out at 94%.
On to `CC1NCCOC1c1ccc(Cl)cc1.CC1NCCOC1c1ccc(Cl)cc1.O=C(O)/C=C/C(=O)O` (stereo not shown) [PAL 749, 3-Methyl-[(4′-Chloro)-2-Phenyl]morpholine (0.5 fumarate)], for which the “NE Rel (%)” value in test [2] (Table 4) is 93%. In addition, in test [1] (Table 4, % EC50 of release), the “DA Rel (%)” value was 88%. The “5HT Rel (%)” value in test [3] worked out at 76%.
For `COc1ccc(C2OCCNC2C)cc1.Cl` (stereo not shown) [PAL 751, 3-Methyl-[(4′-Methoxy)-2-Phenyl]morpholine hydrochloride], in that order: 84%, 50% and 64%.
For `CC1NCCOC1c1ccc(C#N)cc1.CC1NCCOC1c1ccc(C#N)cc1.O=C(O)/C=C/C(=O)O` (stereo not shown) [PAL 772, 3-Methyl-[(4′-Cyano)-2-Phenyl]morpholine (0.5 fumarate)], in that order: 100%, 0% and 53%.
Take `Cc1cccc(C2OCCNC2C)c1.Cc1cccc(C2OCCNC2C)c1.O=C(O)/C=C/C(=O)O` (stereo not shown) [PAL 773, 3-Methyl-2-(3′-Tolyl)morpholine (0.5 fumarate)]: in test [2] (Table 4), the “NE Rel (%)” value amounted to 80%. Moreover, the “DA Rel (%)” value in test [1] (Table 4, % EC50 of release) is listed as 98%. Moreover, the “5HT Rel (%)” value in test [3] is recorded as 82%.
With `CC1NCCOC1c1cccc(O)c1.Cl` (stereo not shown) [PAL 780, 3-Methyl-[(3′-Hydroxy)-2-Phenyl]morpholine hydrochloride], the “NE Rel (%)” value in test [2] (Table 4) is listed as 100%. Moreover, the “DA Rel (%)” value in test [1] (Table 4, % EC50 of release) was 97%. For the same compound, the “5HT Rel (%)” value in test [3] was determined as 70%.
In the same order, the values of `CC1NCCOC1c1cccc(C#N)c1.Cl` (stereo not shown) [PAL 786, 3-Methyl-[(3′-Cyano)-2-Phenyl]morpholine hydrochloride] are 100%, 99% and 99%.
As for `CC1NCCOC1c1ccc(F)c(Cl)c1.Cl` (stereo not shown) [PAL 821, 3-Methyl-[(3′-Chloro-4′-Fluoro)-2-Phenyl]morpholine hydrochloride], the “NE Rel (%)” value in test [2] (Table 4) turned out to be 80%. Further, the “DA Rel (%)” value in test [1] (Table 4, % EC50 of release) is listed as 94%. For the same compound, in test [3], the “5HT Rel (%)” value was determined as 71%.
For `COc1cccc(C2OCCNC2C)c1.COc1cccc(C2OCCNC2C)c1.O=C(O)/C=C/C(=O)O` (stereo not shown) [PAL 823, 3-Methyl-[(3′-Methoxy)-2-Phenyl]morpholine (0.5 fumarate)], in that order: 86%, 96% and 78%.
On to `COc1cccc([C@H]2CN[C@@H](C)CO2)c1` [PAL 880, (2S,5S)-2-(3-Methoxy-phenyl)-5-methyl-morpholine], for which the “DA Rel (%)” value in test [1] (Table 5) came to 56%.
In the case of `Cc1cccc([C@H]2CN[C@@H](C)CO2)c1` [PAL 886, (2S,5S)-5-Methyl-2-m-tolyl-morpholine], the “DA Rel (%)” value in test [1] (Table 5) is recorded as 86%.
`C[C@H]1CO[C@@H](c2cccc(F)c2)CN1` [PAL 890, (2S,5S)-2-(3-Fluoro-phenyl)-5-methyl-morpholine]: in test [1] (Table 5), the “DA Rel (%)” value came out at 96%.
Same read-out and setting: in the case of `C[C@H]1CO[C@@H](c2cccc(C(F)(F)F)c2)CN1` [PAL 895, (2S,5S)-5-Methyl-2-(3-trifluoromethyl-phenyl)-morpholine] it was 45%; in that of `C[C@H]1CO[C@@H](c2ccc(F)cc2)CN1` [PAL 903, (2S,5S)-2-(4-Fluoro-phenyl)-5-methyl-morpholine], 65%; in that of `C[C@H]1CO[C@@H](c2ccc(C(F)(F)F)cc2)CN1` [PAL 910, (2S,5S)-5-Methyl-2-(4-trifluoromethyl-phenyl)-morpholine], 15%.

The values above are taken from US9617229B2, “Phenylmorpholines and analogues thereof” (Research Triangle Institute, priority 2010, dated 2017).
